Measurements published in ChEMBL document CHEMBL1158924, “Cytotoxic constituents of the bark of Plumeria rubra collected in Indonesia” (1990).
Converted amounts (≈) assume the structure as drawn.

How the values were obtained:
Assay type in all cases: functional
[1] = Cytotoxicity against human colon cancer cells; conditions: Cancer cell lines, read-out: ED50 (the source's name)
[2] = system: KB; assay: Cytotoxicity against human KB cells; conditions: read-out: ED50 (the source's name)
[3] = Cytotoxicity against human breast cancer cells; conditions: Cancer cell lines, read-out: ED50 (the source's name)
[4] = system: HT-1080; assay: Cytotoxicity against human HT1080 cells; conditions: read-out: ED50 (the source's name)
[5] = Cytotoxicity against human lung cancer cells; conditions: Cancer cell lines, read-out: ED50 (the source's name)
[6] = system: P388; assay: Cytotoxicity against mouse P388 cells; conditions: read-out: ED50 (the source's name)
[7] = Cytotoxicity against human melanoma cells; conditions: Melanoma cell, read-out: ED50 (the source's name)

| SMILES | EC50 [1] [µg/mL] | EC50 [2] [µg/mL] | EC50 [3] [µg/mL] | EC50 [4] [µg/mL] | EC50 [5] [µg/mL] | EC50 [6] [µg/mL] | EC50 [7] [µg/mL] |
| --- | --- | --- | --- | --- | --- | --- | --- |
| C[C@H](O)C1=C[C@@]2(C=C[C@@H]3C(C(=O)O)=CO[C@@H](O[C@@H]4O[C@H](CO)[C@@H](O)[C@H](O)[C@H]4O)[C@@H]32)OC1=O | > 50 | > 50 | > 50 | > 50 | > 50 | > 50 | > 50 |
| COC1=CC(=O)C(OC)=CC1=O | 1.4 (≈ 8.33 µM) | 3.8 (≈ 22.6 µM) | 5.2 (≈ 30.9 µM) | 3.4 (≈ 20.2 µM) | 1.3 (≈ 7.73 µM) | 2.5 (≈ 14.9 µM) | 2.7 (≈ 16.1 µM) |
| COC(=O)C1=CO[C@@H](O[C@@H]2O[C@H](CO)[C@@H](O)[C@H](O)[C@H]2O)[C@H]2[C@@H]1C=C[C@@]21C=C([C@H](C)OC(=O)/C=C/c2ccc(O)cc2)C(=O)O1 | > 50 | > 50 | > 50 | > 50 | > 50 | > 50 | > 50 |
| COC(=O)[C@@H]1CO[C@H](O)[C@H]2[C@@H]1C=C[C@@]21C=C([C@H](C)O)C(=O)O1 | > 50 | > 50 | > 50 | > 50 | > 50 | > 50 | > 50 |
| COC(=O)[C@@H]1CO[C@@H](O)[C@H]2[C@@H]1C=C[C@@]21C=C([C@H](C)O)C(=O)O1 | > 50 | > 50 | > 50 | > 50 | > 50 | > 50 | > 50 |
| C/C=C1/C(=O)O[C@@]23C=C[C@H]4[C@@H](C(=O)OC)[C@H](O)O[C@@H](O[C@H]12)[C@H]43 [ALLAMANDIN] | 0.3 (≈ 0.973 µM) | 0.4 (≈ 1.3 µM) | 0.4 (≈ 1.3 µM) | 0.8 (≈ 2.59 µM) | 0.7 (≈ 2.27 µM) | 0.2 (≈ 0.649 µM) | 0.3 (≈ 0.973 µM) |
| C/C=C1/C(=O)O[C@@]23C=C[C@H]4C[C@H](O)O[C@@H](O[C@H]12)[C@H]43 [ALLAMCIN] | 0.3 (≈ 1.2 µM) | 0.3 (≈ 1.2 µM) | 0.1 (≈ 0.4 µM) | 3.1 (≈ 12.4 µM) | 1.2 (≈ 4.8 µM) | 0.2 (≈ 0.799 µM) | 0.9 (≈ 3.6 µM) |
| C/C=C/C=C1\C=Cc2c(C(=O)OC)coc(=O)c21 [FULVOPLUMIERIN] | 1.3 (≈ 5.32 µM) | 4.6 (≈ 18.8 µM) | 3.5 (≈ 14.3 µM) | 3.4 (≈ 13.9 µM) | 3 (≈ 12.3 µM) | 2.5 (≈ 10.2 µM) | 0.7 (≈ 2.87 µM) |
| COc1cc([C@H]2OC[C@H]3[C@@H]2CO[C@@H]3c2cc(OC)c(O[C@@H]3O[C@H](CO)[C@@H](O)[C@H](O)[C@H]3O)c(OC)c2)cc(OC)c1O[C@@H]1O[C@H](CO)[C@@H](O)[C@H](O)[C@H]1O [LIRIODENDRIN] | 16 (≈ 21.5 µM) | 6 (≈ 8.08 µM) | 30 (≈ 40.4 µM) | 8.9 (≈ 12 µM) | 6 (≈ 8.08 µM) | 2.4 (≈ 3.23 µM) | 19 (≈ 25.6 µM) |
| C/C=C1/C(=O)O[C@]23C=C[C@@H]4C(C(=O)OC)=CO[C@H](O[C@@H]12)[C@@H]43 [PLUMERICIN] | 0.1 (≈ 0.345 µM) | 0.3 (≈ 1.03 µM) | 0.4 (≈ 1.38 µM) | 0.2 (≈ 0.689 µM) | 0.2 (≈ 0.689 µM) | 1.2 (≈ 4.13 µM) | 2.8 (≈ 9.65 µM) |
| COC(=O)C1=CO[C@@H](O[C@@H]2O[C@H](CO)[C@@H](O)[C@H](O)[C@H]2O)[C@H]2[C@@H]1C=C[C@@]21C=C([C@H](C)O)C(=O)O1 [PLUMIERIDE] | > 50 | > 50 | > 50 | > 50 | > 50 | > 50 | > 50 |
